Drawing on patent US10130619B2, “Amido thiadiazole derivatives as NADPH oxidase inhibitors” (GENKYOTEX SUISSE SA, priority 2014, dated 2018), this text covers Ki for 13 compounds.

In the assay the target is hNOX1 (Homo sapiens (Human), UniProt Q9Y5S8). Description: ROS production measurement on hNOX1 membranes (Amplex Red fluorescence assay, assay 1). To be noted: assay 1: membranes from CHO cells overexpressing hNox1, Amplex Red/HRP fluorescence, NADPH 30 μM; non linear regression (GraphPad Prism); read-out: Nox1 inhibitory constant Ki. Type of assay: biochemical. Here is the method: Reactive oxygen species (ROS) production generated by hNOX1 enzyme was measured by fluorescence in both cellular and membrane-based assays using the Amplex® Red reagent. In the presence of horseradish peroxidase (HRP), the Amplex® Red reagent (10-acetyl-3,7-dihydroxyphenoxazine, AR), which is a colorless and nonfluorescent derivative of dihydroresorufin, reacts with H2O2 with a 1:1 stoichiometry to produce highly fluorescent resorufin at an excitation and emission wavelengths of 544 nm and 590 nm, respectively.
hNOX1, sequence (Q9Y5S8 whole entry): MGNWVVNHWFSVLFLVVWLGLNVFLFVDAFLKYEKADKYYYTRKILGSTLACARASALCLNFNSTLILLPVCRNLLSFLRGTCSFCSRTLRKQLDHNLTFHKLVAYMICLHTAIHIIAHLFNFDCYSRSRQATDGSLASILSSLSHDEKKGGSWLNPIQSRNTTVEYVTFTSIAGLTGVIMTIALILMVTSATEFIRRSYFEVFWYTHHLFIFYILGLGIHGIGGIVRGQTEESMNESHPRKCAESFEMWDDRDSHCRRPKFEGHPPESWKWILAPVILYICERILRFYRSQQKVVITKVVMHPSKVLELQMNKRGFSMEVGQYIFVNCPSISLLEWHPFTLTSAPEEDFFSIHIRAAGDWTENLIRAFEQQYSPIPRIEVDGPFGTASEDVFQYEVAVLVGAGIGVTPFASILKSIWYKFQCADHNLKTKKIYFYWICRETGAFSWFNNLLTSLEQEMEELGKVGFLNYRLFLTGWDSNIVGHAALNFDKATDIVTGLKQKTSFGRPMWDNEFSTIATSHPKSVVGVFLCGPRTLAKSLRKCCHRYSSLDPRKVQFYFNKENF
hNOX1, sequence (P13498 whole entry partner): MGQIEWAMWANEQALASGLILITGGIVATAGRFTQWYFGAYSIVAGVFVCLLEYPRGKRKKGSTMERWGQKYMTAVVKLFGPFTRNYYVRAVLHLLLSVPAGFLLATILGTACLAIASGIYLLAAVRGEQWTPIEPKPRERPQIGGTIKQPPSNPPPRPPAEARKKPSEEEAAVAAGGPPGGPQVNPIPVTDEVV
After resuspension in sonication buffer (11% sucrose, 120 mM NaCl, 1 mM EGTA in PBS, pH 7.4), cells were broken by sonication and centrifuged (200 g, 10 min). The supernatant was layered onto a 17/40% (w/v) discontinuous sucrose gradient and centrifuged (150,000 g for 30 min). Membrane fractions were collected from the 17/40% interface, aliquoted in 10 μl samples and were stored at −80° C. Protein concentration was determined with Bradford reagent. Flavin Adenine Dinucleotide (FAD) (catalog # F6625-500MG), MgCl2 (catalog # M8266-100G), Phosphatidic Acid (PA) (catalog # P3591-50MG) were purchased from Sigma-Aldrich. […] NADPH (catalog #A1395, 0500) was purchased from Applichem. Amplex red (AR) (catalog # A22177) was purchased from Invitrogen. […] FLUOstar OPTIMA microplate reader was supplied by BMG Labtech (Germany). Zephyr® Compact Liquid Handling Workstation was supplied by PerkinElmer (Germany).
Assay 1: ROS Production Measurement on hNOX1 Membranes
All solutions were placed on ice and protected from light.
The NADPH was dissolved in water at a concentration of 12 mM and was transferred in a metal transfer plate kept at 4° C. The NADPH was added to the assay plate to initiate the reaction just before the measurement.
Serial dilution (1:3, 10 serial dilution) of the compounds was performed in 100% DMSO in 96 well polypropylene plate—Row B-H […], Row A, Column 1-10 contained reference compound. Starting concentration was 10^−2 M (10 mM). Final concentration in assay was 10^−4 M (100 μM). Compounds were diluted twice in PBS buffer by transferring 30 μl/well of PBS into 30 μl/well compounds sample in DMSO using Zephyr® Compact Liquid Handling Workstation. Control wells-columns 1 and 12-contained 60 μl DMSO in 50% PBS pH7.
Reaction mixture is dispensed using Zephyr® Compact Liquid Handling Workstation. 90 μl of mix with membrane were dispensed into 96 well black plates—Column 2-11, Column 1 Row A-D, Column 12 Row E-H. 90 μl of control mix were dispensed into assay plate—Column 1 Row E-H, Column 12 Row A-D, which are wells for measuring background signal. 2 μl of compounds were dispensed into each well of assay plate using Zephyr® Compact Liquid Handling Workstation. The reaction mixture with compounds was incubated in assay plates for 20 min at 37° C. in a Titramax microplate incubator with gentle agitation. 10 μl of NADPH is dispensed to the assay plate. Fluorescence reading was recorded with the FLUOstar OPTIMA microplate reader for 10 min at 37° C. (8 cycles, 1 cycle duration 55 sec).
With `COc1cc(C(=O)Nc2nnc(-c3ccncc3)s2)ccc1O[C@H](CN(C)C)c1ccc(F)cc1` [(200)], the inhibition constant (Ki) (in general, the equilibrium dissociation constant of an inhibitor or competing ligand from its target) was determined as 110 nM. To `CC(Oc1ccc(C(=O)Nc2nnc(-c3ccncc3)s2)cc1OCC1CCNCC1)c1ccccc1` (stereo not shown) [Example 1, 4-(1-phenylethoxy)-3-(piperidin-4-ylmethoxy)-N-(5-(pyridin-4-yl)-1,3,4-thiadiazol-2-yl)benzamide] belongs 18 nM; to `COc1cc(C(=O)Nc2nnc(-c3ccncc3)s2)ccc1O[C@@H](CO)c1ccccc1` [Example 7, (R)-4-(2-hydroxy-1-phenylethoxy)-3-methoxy-N-(5-(pyridin-4-yl)-1,3,4-thiadiazol-2-yl)benzamide], 22 nM.

In the case of `COc1cc(C(=O)Nc2nnc(-c3ccncc3)s2)ccc1O[C@@H](CCN1CCCC1)c1ccccc1` [Example 9, (S)-3-methoxy-4-(1-phenyl-3-(pyrrolidin-1-yl)propoxy)-N-(5-(pyridin-4-yl)-1,3,4-thiadiazol-2-yl)benzamide], the inhibition constant (Ki) turned out to be 29 nM. `COc1cc(C(=O)Nc2nnc(-c3ccncc3)s2)ccc1O[C@@H](CN1CCCC1)c1ccccc1` [Example 10, (R)-3-methoxy-4-(1-phenyl-2-(pyrrolidin-1-yl)ethoxy)-N-(5-(pyridin-4-yl)-1,3,4-thiadiazol-2-yl)benzamide]: the Ki worked out at 49 nM. To `COc1cc(C(=O)Nc2nnc(-c3ccncc3)s2)ccc1OCc1nccn1C` [Example 19, 3-methoxy-4-((1-methyl-1H-imidazol-2-yl)methoxy)-N-(5-(pyridin-4-yl)-1,3,4-thiadiazol-2-yl)benzamide] belongs 220 nM. To `COCCNc1cc(C(=O)Nc2nnc(-c3ccncc3)s2)cnc1O[C@@H](C)c1ccccc1` [Example 22, (S)-5-((2-methoxyethyl)amino)-6-(1-phenylethoxy)-N-(5-(pyridin-4-yl)-1,3,4-thiadiazol-2-yl)nicotinamide] belongs 18 nM; to `CN1CCN(c2cc(C(=O)Nc3nnc(-c4ccncc4)s3)cnc2OCc2ccccc2)CC1` [Example 24, 6-(benzyloxy)-5-(4-methylpiperazin-1-yl)-N-(5-(pyridin-4-yl)-1,3,4-thiadiazol-2-yl)nicotinamide], 62 nM. Regarding `CC(C)(O)[C@H](Oc1ncc(C(=O)Nc2nnc(-c3ccncc3)s2)cc1Cl)c1ccccc1` [Example 29, (R)-5-chloro-6-(2-hydroxy-2-methyl-1-phenylpropoxy)-N-(5-(pyridin-4-yl)-1,3,4-thiadiazol-2-yl)nicotinamide], the Ki worked out at 64 nM.

As for `CC(Cc1ccccc1)Oc1ccc(C(=O)Nc2nnc(-c3ccncc3)s2)cn1` (stereo not shown) [Example 34, 6-((1-phenylpropan-2-yl)oxy)-N-(5-(pyridin-4-yl)-1,3,4-thiadiazol-2-yl)nicotinamide], the inhibitory constant (Ki) came to 45 nM.

As to `C[C@H](Oc1ncc(C(=O)Nc2nnc(-c3ccncc3)s2)cc1OCC1CCOCC1)c1ccccc1` [Example 37, (S)-6-(1-phenylethoxy)-N-(5-(pyridin-4-yl)-1,3,4-thiadiazol-2-yl)-5-((tetrahydro-2H-pyran-4-yl)methoxy)nicotinamide], the Ki worked out at 38 nM. As to `O=C(Nc1nnc(-c2ccncc2)s1)c1ccc(O[C@@H](CN2CCOCC2)c2ccccc2)nc1` [Example 39, (R)-6-(2-morpholino-1-phenylethoxy)-N-(5-(pyridin-4-yl)-1,3,4-thiadiazol-2-yl)nicotinamide], the inhibition constant (Ki) came to 100 nM. To `COc1cc(C(=O)Nc2nnc(-c3ccncc3)s2)ccc1CN1Cc2ccccc2C1` [Example 40, 4-(isoindolin-2-ylmethyl)-3-methoxy-N-(5-(pyridin-4-yl)-1,3,4-thiadiazol-2-yl)benzamide] belongs 190 nM.
